Reference: patent US5952320A, “Macrocyclic inhibitors of matrix metalloproteinases and TNFα secretion” (Abbott Laboratories, priority 1997, dated 1999)

Each molecule was assayed against T1, Recombinant truncated stromelysin (human sequence) (Homo sapiens, UniProt P08254) (assay: Determination of Stromelysin Inhibition (cleavage of thiopeptide ester substrate, DTNB, 405 nm)). Settings: not given.
T1 construct: made in house; host or cells: E. coli
Format: biochemical
Procedure: The efficacy of the compounds of this invention as matrix metalloproteinase inhibitors was determined by measuring the inhibition of stromelysin. The inhibition of stromelysin by the compounds of this invention was determined as follows: Recombinant truncated stromelysin (human sequence) produced in E. coli was prepared by expression and purification of the protein as described by Ye et al., Biochemistry, 1992, 31, 11231-11235. The enzyme was assayed by its cleavage of the thiopeptide ester substrate Ac-Pro-Leu-Gly-[2-mercapto-4-methyl-pentanoyl]-Leu-Gly-OEt described by Weingarten and Feder, Anal. Biochem., 1985, 147, 437-440 (1985), as a substrate of vertebrate collagenase. The reported conditions were modified to allow assays to be carried out in a microtiter plate. Upon hydrolysis of the thioester bond, the released thiol group reacts rapidly with 5,5'-dithio-bis(2-nitrobenzoic acid) (DTNB), producing a yellow color which is measured by a microtiter plate reader set at 405 nm. The rates of cleavage of the substrate by stromelysin in the presence or absence of inhibitors are measured in a 30 min assay at ambient temperature. Solutions of the compounds in DMSO are prepared, and these are diluted at various concentrations into the assay buffer (50 mM MES/NaOH pH 6.5 with 10 mM CaCl2 and 0.2% Pluronic F-68), which is also used for dilution of the enzyme and substrate. The potency of the compounds [IC50 ] are calculated from the inhibition/inhibitor concentration data.

T1 sequence (P08254 100-272 limits assumed): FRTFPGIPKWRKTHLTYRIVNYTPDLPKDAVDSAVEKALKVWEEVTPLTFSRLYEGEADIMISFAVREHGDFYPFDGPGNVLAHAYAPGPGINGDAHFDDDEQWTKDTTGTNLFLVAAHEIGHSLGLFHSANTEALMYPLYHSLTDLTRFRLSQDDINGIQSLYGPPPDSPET

Row | SMILES | IC50 [nM]
1 | Cc1ccc(CCC[C@H]2C(=O)N[C@H](C(=O)O)Cc3ccc(cc3)OCCCC[C@@H]2C(=O)NO)cc1 [Example 32] | 6.7
2 | COC(=O)[C@@H]1Cc2ccc(cc2)OCCCCC[C@H](C(=O)NO)[C@@H](CC(C)C)C(=O)N1 [Example 26] | 27
3 | CC(C)C[C@H]1C(=O)N[C@H](C(=O)O)Cc2ccc(cc2)OCCCCC[C@@H]1C(=O)NO [Example 21] | 39

Same assay, conditions: Inhibitory potencies against stromelysin; 30 min assay at ambient temperature, pH 6.5; read-out: IC50

Row | SMILES | IC50 [nM]
4 | CC(C)C[C@H]1C(=O)N[C@H](C(=O)N2CCOCC2)Cc2ccc(cc2)OCCCC[C@@H]1C(=O)NO [Example 5] | 9.3
5 | CC(C)C[C@H]1C(=O)N[C@H](C(=O)N2CCC[C@H]2C(=O)O)Cc2ccc(cc2)OCCCCC[C@@H]1C(=O)NO [Example 25] | 44
6 | CNC(=O)[C@@H]1Cc2ccc(cc2)N(C(=O)OCc2ccccc2)CCCCC[C@H](C(=O)NO)[C@@H](CC(C)C)C(=O)N1 [Example 18] | 0.61
7 | CC(C)C[C@H]1C(=O)N[C@H](C(=O)N2CCC[C@H]2C(=O)OCc2ccccc2)Cc2ccc(cc2)OCCCCC[C@@H]1C(=O)NO [Example 24] | 8.9
8 | CNC(=O)[C@@H]1Cc2ccc(cc2)OCCC[C@H](C(=O)NO)[C@@H](CC(C)C)C(=O)N1 [Example 10] | 7.8
9 | CC(C)C[C@H]1C(=O)N[C@H](c2nc3ccccc3[nH]2)Cc2ccc(cc2)OCCCC[C@@H]1C(=O)NO [Example 7] | 3.6
10 | CC(C)C[C@H]1C(=O)N[C@H](C(=O)NC2CC2)Cc2ccc(cc2)OCCCC[C@@H]1C(=O)NO [Example 3] | 5.8
11 | CNC(=O)[C@@H]1Cc2ccc(cc2)OCCCCC[C@H](C(=O)O)[C@@H](CCCc2ccc(C)cc2)C(=O)N1 [Example 30] | 20
12 | CC(C)C[C@H]1C(=O)N[C@H](c2nc(-c3ccccc3)c[nH]2)Cc2ccc(cc2)OCCCCC[C@@H]1C(=O)NO [Example 23] | 8.1
13 | CNC(=O)[C@@H]1Cc2ccc(cc2)OCCC[C@H](C(=O)O)[C@@H](CC(C)C)C(=O)N1 [Example 9] | 2100
14 | CNC(=O)[C@@H]1Cc2ccc(cc2)OCCCCCC[C@H](C(=O)NO)[C@@H](CC(C)C)C(=O)N1 [Example 12] | 12
15 | CNC(=O)[C@@H]1Cc2ccc(cc2)NCCCCC[C@H](C(=O)NO)[C@@H](CC(C)C)C(=O)N1 [Example 19] | 20
16 | CC(C)C[C@H]1C(=O)N[C@H](C(=O)c2ccc[nH]2)Cc2ccc(cc2)OCCCCC[C@@H]1C(=O)NO [Example 15] | 7.2
17 | CNC(=O)[C@@H]1Cc2ccc(cc2)NC(=O)CCCC[C@H](C(=O)NO)[C@@H](CC(C)C)C(=O)N1 [Example 16] | 23
18 | CNC(=O)[C@H]1NC(=O)[C@H](CC(C)C)[C@@H](C(=O)NO)CCCCCOc2ccc1cc2 [Example 41] | 26
19 | CNC(=O)[C@@H]1Cc2ccc(cc2)/C=C\CCCCC(C(=O)NO)[C@@H](CC(C)C)C(=O)N1 (stereo partly shown) [Example 13] | 2.4

Second part, the molecule after the results:

Row | IC50 [nM] | SMILES
20 | 92 | CC(C)C[C@H]1C(=O)N[C@H](C(=O)OCc2ccccc2)Cc2ccc(cc2)OCCCCC[C@@H]1C(=O)NO [Example 20]
21 | 6.9 | CC(C)C[C@H]1C(=O)N[C@H](C(=O)NCCc2ccc(S(N)(=O)=O)cc2)Cc2ccc(cc2)OCCCC[C@@H]1C(=O)NO [Example 1]
22 | 2.6 | CC(C)C[C@H]1C(=O)N[C@H](C(=O)Nc2ccccn2)Cc2ccc(cc2)OCCCC[C@@H]1C(=O)NO [Example 6]
23 | 570 | CNC(=O)[C@@H]1Cc2ccc(cc2)OCCCC[C@@H](C(=O)NO)[C@@H](CC(C)C)C(=O)N1 [8 syn]
24 | 6.1 | CNC(=O)[C@@H]1Cc2ccc(cc2)OCCCCC[C@H](C(=O)NO)[C@@H](CC(C)C)C(=O)N1 [Example 11]
25 | 0.56 | Cc1ccc(CCC[C@H]2C(=O)N[C@H](C(=O)NCCN(C)C)Cc3ccc(cc3)OCCCC[C@@H]2C(=O)NO)cc1 [Example 38]
26 | 2.4 | CC(C)C[C@H]1C(=O)N[C@H](C(=O)Nc2ccccc2)Cc2ccc(cc2)OCCCC[C@@H]1C(=O)NO [Example 4]
27 | 1.5 | CCCc1ccc(CC[C@H]2C(=O)N[C@H](C(=O)NC)Cc3ccc(cc3)OCCCC[C@@H]2C(=O)NO)cc1 [Example 34]
28 | 3.9 | CNC(=O)[C@@H]1Cc2ccc(cc2)OCCCC[C@H](C(=O)NO)[C@@H](CC(C)C)C(=O)N1 [8 anti]
29 | 2.9 | CNC(=O)[C@@H]1Cc2ccc(cc2)OCCCCC[C@H](C(=O)NO)[C@@H](CCCc2ccc(C)cc2)C(=O)N1 [Example 31]
30 | 2.7 | CC(C)C[C@H]1C(=O)N[C@H](C(=O)c2ccccc2)Cc2ccc(cc2)OCCCCC[C@@H]1C(=O)NO [Example 14]
31 | 7.2 | CC(C)C[C@H]1C(=O)N[C@H](C(=O)NCCc2ccccc2)Cc2ccc(cc2)OCCCC[C@@H]1C(=O)NO [Example 2]
